Drawing on ChEMBL document CHEMBL5143581, “Design, synthesis and molecular docking studies of imidazole and benzimidazole linked ethionamide derivatives as inhibitors of InhA and antituberculosis agents” (Bioorg Med Chem Lett, 2022), this text covers MIC for five compounds.

As usually defined, the MIC is the lowest concentration that inhibits growth of the organism. High values mean a need for much substance, low ones inhibition by little substance.

Structures are written as SMILES. ≈ marks a conversion by molar mass, not a printed value.

This assay deals with Mycobacterium tuberculosis. The experiment in a line: Antimycobacterial activity against InhA overexpressing Mycobacterium tuberculosis InhA-OE. It is filed as functional.
`COc1ccc2c(c1)nc(NC(=O)c1cc(C(N)=S)ccn1)n2C` came in with an MIC of 0.72 µM (≈ 0.246 µg/mL).

In turn, `Cn1c(NC(=O)c2cc(C(N)=S)ccn2)nc2cc(O)ccc21` yielded an MIC of 0.54 µM (≈ 0.177 µg/mL).

Take `Cn1cc(O)nc1NC(=O)c1cc(C(N)=S)ccn1`: 1.99 µM (≈ 0.552 µg/mL) was the least that counted as inhibitory (MIC).

Turning to `Cn1cc(C#N)nc1NC(=O)c1cc(C(N)=S)ccn1`, the MIC was found to be 2.53 µM (≈ 0.724 µg/mL).

`NNC(=O)c1ccncc1` [ISONIAZID] yielded an MIC of 0.74 µM (≈ 0.101 µg/mL).
